≈ marks a conversion by molar mass, not a printed value. Non-standard residues stand in square brackets, D forms with d. Residues, ends and D or L forms follow the SMILES beside them. Bip = N[C@@H](Cc1ccc(-c2ccccc2)cc1)C(=O)O

Data set [1] concerns VRE, VISA, VRSA and E. coli strains. The experiment in a line: Checkerboard assay, summary statements of the text over the strain panel. It is filed as cell-based. The conditions noted are these: peptide at ¼ ×MIC combined with vancomycin, all strains studied. As to the method: The synergistic effects of peptides in combination with vancomycin were investigated by checkerboard assay with slight modification. The peptides were fixed concentration at ¼ × MIC, then in combination with antibiotics at various concentrations in each well of 96-well plate. Then the peptide/antibiotic were mixed with inoculum (5 × 10^5 CFU/mL) and incubated at 37 °C for 16 h. The fractional inhibitory concentration (FIC) index was calculated as follows: FIC index = (MIC of drug A in combination/MIC of drug A alone) + (MIC of drug B in combination/MIC of drug B alone). An FIC index of ≤ 0.5 was defined as synergy, indifference was defined as an FIC index of 0.5 < FICI ≤ 4, antagonism was defined as an FIC index of > 4. The experiments were performed in triplicate.

Data set [2] deals with E. faecium BCRC 15B0132. Description: Uptake of BODIPY-labeled vancomycin, confocal laser scanning microscopy. It is filed as cell-based, Enterococcus faecium. The conditions noted are these: VRE 10^7 CFU/mL, 0.5 ×MIC peptide 30 min at 37 °C, then BODIPY-labeled vancomycin (2 μg/mL) 30 min; mean fluorescence intensity. As to the method:
(§1) The fluorescence experiments were performed with slight modification as described previously. Briefly, the bacteria (10^7 CFU/mL) were incubated with 0.5 ×MIC antimicrobial peptides for 30 min and then treated with BODIPY-labeled vancomycin (2 μg/mL) for 30 min. Samples treated with BODIPY-labeled vancomycin only served as a control. After incubation, bacteria were centrifuged at 8000× g for 5 min, washed three times with PBS to remove unbinding fluorescence dye, and resuspended by PBS. The resuspended solution were loaded on the glass slides (Polysine™, Thermo Fisher Scientific, Waltham, MA, USA) and visualized under confocal laser scanning microscope (LSM 510 META, Carl Zeiss, Jena, Thüringen, Germany) equipped with a 64× oil objective lens (Carl Zeiss, Jena, Thüringen, Germany).

Data set [3] has as its system E. faecium BCRC 15B0132 (VRE). Description: Time killing assay. The format is cell-based, Enterococcus faecium. The conditions noted are these: 5 × 10^5 CFU/mL, 1 × MIC, 0.5-24 h, 37 °C, triplicate. As to the method: The bactericidal activities of vancomycin, P-113, Phe-P-113, Bip-P-113, Dip-P-113, and Nal-P-113 against E. faecium BCRC 15B0132 (VRE) and E. coli ATCC 25922 were assessed by the time-kill analysis. The cells were grown overnight in TSB or MHB at 37 °C with shaking, and then fresh TSB or MHB was inoculated for growth to mid-logarithmic phase. Bacteria (5 × 10^5 CFU/mL) were treated with 1 × MIC vancomycin, P-113, Phe-P-113, Bip-P-113, Dip-P-113, and Nal-P-113 for 0.5, 1, 2, 4, 6, 10, and 24 h at 37 °C. Bacteria without peptides and vancomycin served as a control. Aliquots were removed at each time points, and 10-fold serial dilutions of the aliquot were plated onto the Müller-Hinton agar. The numbers of CFU were counted after 24 h of incubation at 37 °C. The detection limit for the colony counts was 2log10 CFU/mL.

Data set [4] concerns Vancomycin-resistant S. aureus 02 (VRSA02). The experiment in a line: microbe, parasite or virus in culture. The format is cell-based, Staphylococcus aureus. The conditions noted are these: VRSA02 (induced from VISA02 by serial passage); CLSI broth microdilution, TSB, 5 × 10^5 CFU/mL, 16 h, 37 °C; triplicate. How it is done:
(§2) For the purpose of inducing vancomycin-resistant Staphylococcus aureus (VRSA), the VISA01, VISA02, and VISA03 bacteria were incubated overnight in culture medium, and transferring 50 µL of bacteria to 5 mL of fresh medium containing 2 μg/mL of vancomycin then incubated overnight. The bacteria were transferred to new tube with doubling vancomycin concentration and then incubated overnight again. The concentration of vancomycin during serial passage was 2, 4, 8, 16, and 32 µg/mL. The procedure was repeated until meeting the final concentration of 32 µg/mL. After serial passage, the cell resistance was confirmed by using an MIC assay.
(§3) The antibacterial activities of peptides were determined by the standard broth microdilution method according to the guidelines of the Clinical and Laboratory Standards Institute (CLSI). Briefly, E. coli ATCC 25922 were incubated in MHB, and E. faecium BCRC 15B0132, VISA and VRSA strains were incubated in TSB overnight at 37 °C. The cell cultures were regrown to the mid-log phase and subsequently diluted to a final concentration of 5 × 10^5 CFU/mL. The 1 µL peptides or antibiotic were loaded into each well at the final concentration of 64, 32, 16, 8, 4, 2, 1, and 0.5 µg/mL, then loaded 99 µL diluted microbes into each well of polypropylene 96-well plate. After 16 h of incubation at 37 °C, the turbidity at OD600 was measured by the microplate reader. The minimal inhibitory concentration (MIC) value was defined as the lowest concentration of peptide or antibiotic, which inhibited the 90% visible growth of bacteria. All experiments were repeated three times independently.
For orientation: Dilution methods test growth across graded concentrations, often in twofold steps.

Data set [5] concerns Vancomycin-resistant S. aureus 01 (VRSA01). Description: microbe, parasite or virus in culture. The conditions noted are these: VRSA01 (induced from VISA01 by serial passage); CLSI broth microdilution, TSB, 5 × 10^5 CFU/mL, 16 h, 37 °C; triplicate. The format is cell-based, Staphylococcus aureus. As to the method: as §2, §3
In data set [6] the test system is Vancomycin-resistant S. aureus 03 (VRSA03). Description: microbe, parasite or virus in culture. It is filed as cell-based, Staphylococcus aureus. The conditions noted are these: VRSA03 (induced from VISA03 by serial passage); CLSI broth microdilution, TSB, 5 × 10^5 CFU/mL, 16 h, 37 °C; triplicate. How it is done:
as §2, §3

For data set [7] the following is noted: among the P-113 derivatives; cited from earlier work. An excerpt:
The two terminal β-naphthylalanine residues of S1-Nal-Nal (Ac-[…]alNal-NH2) were inserted into the hydrophobic lipid A motif of LPS micelles. […] Similarly, derivatives with phenylalanine-(Phe-P-113), β-naphthylalanine- (Nal-P-1 ...

Data set [8] concerns VRE, VISA, VRSA, and E. coli strains. The experiment in a line: microbe, parasite or virus in culture. It is filed as cell-based. The conditions noted are these: all strains studied (VRE, VISA 01-03, VRSA 01-03, E. coli), Table 2. As to the method:
as §3

Data set [9] deals with mice. The conditions noted are these: mouse, in vivo, 10 mg/kg; cited from earlier work.
The subject of data set [10] is Vancomycin-intermediate S. aureus 01 (VISA01). Description: microbe, parasite or virus in culture. The conditions noted are these: Vancomycin-intermediate 01 (VISA01, 16 h). It is filed as cell-based, Staphylococcus aureus. How it is done:
as §3

The test system of data set [11] is Vancomycin-intermediate S. aureus 02 (VISA02). Description: microbe, parasite or virus in culture. It is filed as cell-based, Staphylococcus aureus. The conditions noted are these: Vancomycin-intermediate 02 (VISA02, 16 h). As to the method:
as §3

Data set [12] deals with Vancomycin-intermediate S. aureus 03 (VISA03). The experiment in a line: microbe, parasite or virus in culture. The conditions noted are these: Vancomycin-intermediate 03 (VISA03, 16 h). It is filed as cell-based, Staphylococcus aureus. As to the method:
as §3

Data set [13] relates to E. coli ATCC 25922. The experiment in a line: Uptake of BODIPY-labeled vancomycin, confocal laser scanning microscopy. The conditions noted are these: E. coli 10^7 CFU/mL, 0.5 ×MIC peptide 30 min at 37 °C, then BODIPY-labeled vancomycin (2 μg/mL) 30 min; mean fluorescence intensity. It is filed as cell-based, Escherichia coli. As to the method:
as §1

In data set [14] the test system is E. coli ATCC 25922. Description: microbe, parasite or virus in culture. The conditions noted are these: ATCC 25922, 16 h. It is filed as cell-based, Escherichia coli. As to the method:
as §3

The conditions of data set [15]: POPC:POPG (3:1, mol/mol) and POPC:LPS (4:1, mol/mol) LUVs; cited from earlier work. An excerpt:
Dathe and coauthors used POPC:LPS as model prokaryotic membranes to study peptide activity against E. coli and the role of LPS [20]. Previously, we have evaluated the membrane-permeability of P-113 and its derivatives by measuring the release of calcein from various phospholipid vesicles such as POPC:POPG (3:1, mol/mol) LUVs (mimic the anionic bacterial membrane) and POPC:LPS (4:1, mol/mol) LUVs (served as surrogates of Gram-negative bacterial membranes that contain LPS). […] Nal- ...

The subject of data set [16] is E. faecium BCRC 15B0132 (VRE). Description: microbe, parasite or virus in culture. The format is cell-based, Enterococcus faecium. The conditions noted are these: BCRC 15, 16 h. How it is done: as §3
The subject of data set [17] is human fibroblasts (HFW). The conditions noted are these: peptide >25 µg/mL; cited from earlier work.

As for `CC(=O)N[C@@H](C)C(=O)N[C@@H](CCCCN)C(=O)N[C@@H](CCCNC(=N)N)C(=O)N[C@@H](Cc1ccc(-c2ccccc2)cc1)C(=O)N[C@@H](Cc1ccc(-c2ccccc2)cc1)C(=O)NCC(=O)N[C@@H](Cc1ccc(O)cc1)C(=O)N[C@@H](CCCCN)C(=O)N[C@@H](CCCNC(=N)N)C(=O)N[C@@H](CCCCN)C(=O)N[C@@H](Cc1ccccc1)C(=O)N[C@@H](Cc1ccc(-c2ccccc2)cc1)C(N)=O` [Bip-P-113] (Ac-AKR[Bip][Bip]GYKRKF[Bip]-NH2), the “synergy with vancomycin (interpretation of FICI)” value in data set [1] is “best synergy with vancomycin against all of the bacterial strains tested”. In addition, the “entry of BODIPY-labeled vancomycin into the bacteria (rank order)” value in data set [2] is recorded as “Bip-P-113 = Nal-P-113 > Dip-P-113 > Phe-P-113 = P-113”; in [13], “Bip-P-113 > Nal-P-113 > Dip-P-113 > Phe-P-113 = P-113”. Besides, in data set [3], the killing kinetics entry was “rapid bactericidal activity”. Also, the MIC was 16 µg/mL (≈ 8.58 µM) in data set [4]; 16 µg/mL (≈ 8.58 µM) in data set [5]; 8 µg/mL (≈ 4.29 µM) in [6]; 16 µg/mL (≈ 8.58 µM) in [10]; 16 µg/mL (≈ 8.58 µM) in data set [11]; 8 µg/mL (≈ 4.29 µM) in data set [12]. For the same compound, the MIC amounted to 32 µg/mL (≈ 17.2 µM) in data set [14] and 4 µg/mL (≈ 2.15 µM) in [16]. For the same compound, the serum proteolytic stability result in data set [7] is reported as “enhanced”. The “MICs against these bacterial strains” value in data set [8] is reported as “best MICs”. Also, the “adverse effect in mice” value in [9] is “did not observe any adverse effect”. Moreover, the “calcein leakage from LUVs” value in [15] is reported as “strongest ability to induce calcein leakage”. For the same compound, the “cell death (MTT)” value in data set [17] is given as 10–20%.

(Values after publication PMC7369893, “Antimicrobial Peptides Display Strong Synergy with Vancomycin Against Vancomycin-Resistant E. faecium, S. aureus, and Wild-Type E. coli” (International Journal of Molecular Sciences, 2020).)
